Reference: US7112422B2, “Fluorometric assay for detecting nucleic acid cleavage” (Georgetown University, priority 1994, dated 2006)
{FITC} = fluorescein isothiocyanate through the Aminolink 2 six-carbon amine linker

B1: F-D1/T1: 5′-TGAGTACCCGTGTGGAAAATCTCTAGCAGGGNCTATGGCGTCCCCTCTG (SEQ ID NO:3); E-D2: 3′-… (SEQ ID NO:4) (nucleic acid)
sense: TGAGTACCCGTGTGGAAAATCTCTAGCAGGGNCTATGGCGTCCCCTCTG
antisense: NACTGCTAGAGATTTTCCACACGGGTACTCA
modifications: FITC and EITC labels, chemistry not fully specified
notes: FITC-labeled 49-mer hybrid strand of HIV-1 U5 end annealed to EITC-labeled partial complementary strand

Tests used:
[1] = molecular target: T1, BamHI restriction endonuclease (Bacillus amyloliquefaciens, UniProt P23940); test: BamHI cleavage of FITC-labeled DNA substrate, continuous fluorometric (dequenching) assay; format: biochemical, Bacillus amyloliquefaciens H; settings: 10 units BamHI in 100 μl, 37° C.
T1 construct: purchased New England Biolab
Method: Spectroscopic Measurements: Absorbance and absorption spectra were measured with a Hewlett-Packard 8450A diode array spectrophotometer. Using the extinction coefficient of fluorescein (E-78,000) at 492 nm, the concentration and total moles of fluorescein were calculated (Chen and Scott, supra). The amount of fluorescein conjugated to the oligonucleotide was estimated by subtracting the moles of fluorescein multiplied by the extinction coefficient of FITC at 260 nm, 23,000 M^−1 cm^−1, from the total absorbance at 260 nm. The remaining AU260 should be proportional to the DNA content. Steady-state fluorescence spectra and intensity were recorded with an SLM 8000 spectrophotofluorometer with 10-mm Glan-Thompson polarizers. Fluorescence emission measurements were performed under “magic angle” emission conditions (Spencer and Weber, J. Chem. Phys. 52:1654–1663 (1970)). A cuvette with a 3-mm excitation path length was used for all experiments. The absorbance of all fluorescence samples was less than 0.1 at the wavelength of excitation to avoid inner-filter effects. The temperatures of the samples were regulated with a Neslab Instruments, Inc., T.E.Q. temperature controller and a PBC4 bath cooler.
The extent of cleavage by BamHI was calculated from the fluorescence data utilizing the following equation:
[formula] where [DNA]c is the concentration of cleaved DNA, Ft is the fluorescence intensity at time, t, F∞is the fluorescence intensity at the plateau, F0 is the initial fluorescence intensity, and [DNA]i is the initial concentration of DNA. Results and Discussion
(§1) Cleavage reactions were also examined as a function of substrate concentration with a fixed concentration of BamHI (10 units in 100 μl total reaction volume). The reactions were initiated by the addition of BamHI and stopped by the addition of 25 mM EDTA 11 minutes after the enzyme was added. The reaction mixtures were subjected to native 20% polyacrylamide gel analysis. Since the DNA substrate was labeled with FITC, a photograph of the gel was taken under ultraviolet illumination (using a Kodak green filter) without staining the gel with ethidium bromide. Therefore, only the fluorescent-labeled DNA fragments were visualized, resulting in two DNA bands: a substrate band and a product band (5′-FITC-NH-CCCCG). A direct comparison was made between the data obtained from the fluorometric assay and the photographic data obtained from gel electrophoretic analysis. The kinetics of BamHI cleavage reactions as a function of DNA substrate concentration measured by fluorometric analysis are illustrated in FIG. 7A. […] Similarly, the reaction at 0.36 μM substrate reached near completion as shown by both the fluorescence (curve B, FIG. 7A) and the gel data (lane B, FIG. 7B). Higher DNA substrate concentrations, 0.72 μM (curve C, FIG. 7A) and 1.08 μM (curve D, FIG. 7A), yielded incomplete cleavage reactions (observed by changes in fluorescence intensity). […] It appears that the initial velocity of curve D is also slower than that of curve C. […] As expected, the PAGE data (FIG. 7B) show higher product formation in lane C compared to that of lane D.
The fractions of uncleaved and cleaved DNA were calculated from the fluorescence data utilizing equation 1 (see Methods). Fractions of uncleaved and cleaved DNA were also estimated from a photograph taken from the polyacrylamide gel. […]

[2] = molecular target: T1, BamHI restriction endonuclease; test: BamHI cleavage of FITC-labeled DNA substrate, native 20% PAGE with densitometry; format: biochemical, Bacillus amyloliquefaciens H; settings: 10 units BamHI in 100 μl, 37° C.
Method: as §1
The fractions of uncleaved and cleaved DNA were calculated from the fluorescence data utilizing equation 1 (see Methods). Fractions of uncleaved and cleaved DNA were also estimated from a photograph taken from the polyacrylamide gel. Utilizing a Hewlett Packard ScanJet IIp and the densitometry program Scan Analysis 68000 (BioSoft), the peaks obtained from each of the bands (substrate and products) were integrated and ratioed to obtain the relative amount of cleavage.

HIV-IN = molecular target: T2, HIV-IN (Human immunodeficiency virus type 1 group M subtype B, UniProt P12497); test: HIV-IN cleavage of fluorogenic substrate monitored by FRET; format: biochemical
T2 construct: The wild-type HIV-integrase protein was obtained from Dr. Robert Craigie; made in house; host or cells: Escherichia coli
Method: FIGS. 10A and 10B: FIG. 10A is a graph depicting steady-state emission spectra of a fluorogenic substrate in the presence and absence of HIV-IN. Curve A depicts the emission spectrum of 4 pmol of fluorogenic substrate in 400 μl reaction buffer containing 25 mM HEPES, pH 7.5, 50 mM NaCl, 2 mM DTT, and 5% glycerol at 37° C. Curve B depicts the emission spectrum of the same substrate digested with 40 pmol HIV-IN for 1 hour. Curve C depicts the difference emission spectrum of curve B and curve A. Emission spectra were recorded with an excitation wavelength at 460 nm.
FIGS. 11A, 11B, and 11C: FIG. 11A is a graph depicting the kinetics of an HIV-IN cleavage reaction of a fluorogenic substrate monitored by FRET. The DNA cleavage reaction was initiated by the addition of HIV-IN to a preincubated reaction mixture containing 4 pmol of substrate. The conditions for the reactions are the same as in FIG. 10. Changes in fluorescence intensity were monitored with excitation and emission wavelengths of 460 and 510 nm, respectively. Mn^2+ quenched the fluorescence intensity of the substrate in the absence of the enzyme; thus, the kinetic data presented in this figure were intensity normalized according to the intensity ratio of the substrate in the presence of Mg^2+ and in the presence of Mn^2+. FIG. 11B depicts the kinetics of an HIV-IN cleavage reaction of a fluorogenic substrate monitored by denaturing polyacrylamide gel electrophoresis (PAGE). The time course of a ^32P-5′-labeled fluorescent substrate was determined by radiographic assays. […] Reaction mixtures were analyzed by denaturing gel electrophoresis. Results were quantitated by utilizing a Hewlet-Packard ScanJet IIp and the densitometry program Scan Analysis 68020 (BioSoft). […]
Spectroscopic Measurements: Absorbance and absorption spectra were measured with a Hewlett-Packard 8450A diode array spectrophotometer. Steady-state fluorescence spectra and intensity were recorded with an SLM 8000 spectrophotofluorometer with 10-mm Glan-Thompson polarizers. […]

[3] = Curve A, [DNA] 0.21 μM, stopped after 11 minutes
[4] = Curve B, [DNA] 0.36 μM, stopped after 11 minutes
[5] = Curve C, [DNA] 0.72 μM, stopped after 11 minutes
[6] = Curve D, [DNA] 1.08 μM, stopped after 11 minutes
[7] = Curve E, [DNA] 0.18 μM, in the presence of 25 mM EDTA

T1 sequence (P23940 whole entry): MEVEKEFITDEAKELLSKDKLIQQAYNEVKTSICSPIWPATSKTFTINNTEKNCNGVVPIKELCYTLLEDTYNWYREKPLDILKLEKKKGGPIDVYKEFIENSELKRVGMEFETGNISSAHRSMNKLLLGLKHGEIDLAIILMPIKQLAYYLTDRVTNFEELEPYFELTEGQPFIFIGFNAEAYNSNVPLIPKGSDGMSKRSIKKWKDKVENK

Row | Molecule | % Cleavage Fluorescence Assay [1, 3] [%] | % Cleavage Fluorescence Assay [1, 4] [%] | % Cleavage Fluorescence Assay [1, 5] [%] | % Cleavage Fluorescence Assay [1, 6] [%] | % Cleavage Fluorescence Assay [1, 7] [%] | % Cleavage PAGE [2, 3] [%] | % Cleavage PAGE [2, 4] [%] | % Cleavage PAGE [2, 5] [%] | % Cleavage PAGE [2, 6] [%] | % Cleavage PAGE [2, 7] [%] | estimated efficiency of the cleavage reaction by HIV-IN (HIV-IN; 4 pmol substrate, 40 pmol HIV-IN, 1 hour, 37° C., in the presence of Mg2+, relative to DNase I digestion) [%] | changes in donor fluorescence with Mg2+ relative to Mn2+ (HIV-IN; 7.5 mM Mg2+ vs 7.5 mM Mn2+, end of a 60 minute reaction, intensity normalized) | cleavage of substrate by integrase (increase in fluorescence intensity) (HIV-IN; in the presence of 20 mM EDTA, 37° C.)
1 | 5′-FITC-NH-CCCCGGATCCACCC-3′ (SEQ ID NO:1) annealed to 3′-GGGGCCTAGGTGGG-5′ (SEQ ID NO:2) (antisense GGGTGGATCCGGGG; sense: DNA, 5' {FITC}, backbone and methylation of C not given here; antisense: DNA, backbone and methylation of C not given here; further chemistry not fully specified) [FITC-labeled DNA Substrates, 14-mer FITC-labeled oligonucleotide with the BamHI restriction site, annealed to its unlabeled complementary strand] | 100 | 91.9 | 59.5 | 32.2 | 0 | 100 | 92.3 | 60.6 | 30.1 | 0 |  |  | 
2 | B1 |  |  |  |  |  |  |  |  |  |  | 35 | approximately 3 times | not cleaved
